According to DBAASP:
In brackets after ≈: the same amount, converted by molar mass. Several values for one entry are separate records, joined by “and”; a condition that tells them apart may be missing. Equal entries are not always repeated. Blank lines part the entries; values can stand above or below the molecule they belong to.

How the values were obtained:
Experiment in all cases: ≥ marks a high value that may be exact or a test limit, other limits are often not marked, values filed in µg/mL are converted to µM
[1] = test system: Legionella pneumophila Lens
[2] = test system: Staphylococcus aureus ATCC 25923
[3] = test system: Listeria monocytogenes
[4] = test system: Staphylococcus epidermidis ATCC 9709
[5] = test system: Salmonella typhimurium
[6] = test system: Escherichia coli ATCC 25404
[7] = test system: Escherichia coli O157
[8] = test system: Micrococcus luteus ATCC 10420
[9] = test system: Streptococcus pneumoniae ATCC 49619
[10] = test system: Corynebacterium xerosis
[11] = test system: Streptococcus mitis
[12] = test system: Staphylococcus epidermidis C621
[13] = test system: Enterococcus faecalis ATCC 29212
[14] = test system: Salmonella enterica subsp. enterica serovar Typhimurium ATCC 14028s
[15] = test system: Streptococcus pyogenes ATCC 19615
[16] = test system: Escherichia coli UB1005
[17] = test system: Pseudomonas aeruginosa K799
[18] = test system: Candida krusei CGMCC 2.1857
[19] = test system: Candida albicans
[20] = test system: Staphylococcus aureus ATCC 43300
[21] = test system: Staphylococcus epidermidis ATCC 12228
[22] = test system: Staphylococcus aureus ATCC 29213
[23] = test system: Salmonella enterica subsp. enterica serovar Typhimurium ATCC 14028
[24] = test system: Escherichia coli ATCC 25922
[25] = test system: Candida tropicalis CGMCC 2.1975
[26] = test system: Candida parapsilosis CGMCC 2.3989
[27] = test system: Salmonella enterica subsp. enterica serovar Pullorum ATCC 7913
[28] = test system: Escherichia coli 1005
[29] = test system: Klebsiella pneumoniae ATCC 10031
[30] = test system: Micrococcus luteus ATCC 4698
[31] = test system: Staphylococcus aureus ATCC 6538
[32] = test system: Escherichia coli DH5alpha
[33] = test system: Pseudomonas aeruginosa ATCC 15422
[34] = test system: Candida albicans ATCC 10231
[35] = test system: Staphylococcus epidermidis KCTC 1917

SMILES: CC[C@H](C)[C@H](NC(=O)[C@H](Cc1ccccc1)NC(=O)[C@H](CC(=O)O)NC(=O)[C@@H](NC(=O)[C@H](C)NC(=O)[C@H](CCCCN)NC(=O)[C@H](CCCCN)NC(=O)[C@@H](NC(=O)[C@H](CC(C)C)NC(=O)[C@H](CC(=O)O)NC(=O)[C@@H](NC(=O)[C@@H](NC(=O)[C@H](Cc1ccccc1)NC(=O)[C@H](CCC(N)=O)NC(=O)[C@@H](N)CCSC)[C@@H](C)CC)[C@@H](C)O)[C@@H](C)CC)C(C)C)C(=O)N[C@@H](CCCCN)C(=O)NCC(=O)N[C@@H](CC(C)C)C(=O)N[C@@H](Cc1ccccc1)C(=O)NCC(=O)N[C@@H](CC(N)=O)C(=O)N[C@@H](CCCCN)C(=O)O [MQFITDLIKKAVDFIKGLFGNK]
MIC [1]: 1.23 µM (≈ 3.11 µg/mL)

SMILES: CC(C)C[C@H](NC(=O)[C@H](CC(C)C)NC(=O)[C@H](Cc1cnc[nH]1)NC(=O)[C@H](CO)NC(=O)[C@H](CC(C)C)NC(=O)[C@H](C)NC(=O)[C@H](CCCCN)NC(=O)[C@H](Cc1c[nH]c2ccccc12)NC(=O)[C@H](CC(C)C)NC(=O)[C@H](C)NC(=O)CNC(=O)[C@H](CC(C)C)NC(=O)[C@@H](N)Cc1ccccc1)C(=O)O [FLGALWKALSHLL]
MIC [2]: 4 µM (≈ 5.88 µg/mL)
MIC [3]: 8 µM (≈ 11.8 µg/mL)
MIC [4]: 4 µM (≈ 5.88 µg/mL)
MIC [5]: ≥ 64 µM
MIC [6]: ≥ 64 µM
MIC [7]: ≥ 64 µM
MIC [8]: 4 µM (≈ 5.88 µg/mL)

SMILES: CC[C@H](C)[C@H](NC(=O)[C@H](CC(C)C)NC(=O)CNC(=O)[C@H](CCCCN)NC(=O)[C@@H](NC(=O)[C@@H](NC(=O)[C@H](CCC(=O)O)NC(=O)[C@@H](NC(=O)[C@H](Cc1ccccc1)NC(=O)[C@H](CCCCN)NC(=O)[C@H](C)NC(=O)[C@@H](NC(=O)[C@@H](NC(=O)[C@H](CC(=O)O)NC(=O)[C@H](C)NC(=O)[C@@H](N)CCSC)C(C)C)[C@@H](C)CC)C(C)C)[C@@H](C)CC)C(C)C)C(=O)N[C@@H](CC(=O)O)C(=O)N[C@@H](CCC(N)=O)C(=O)N[C@@H](Cc1ccccc1)C(=O)N[C@H](C(=O)N[C@@H](CCC(N)=O)C(=O)N[C@@H](CCCCN)C(=O)O)[C@@H](C)O [MADVIAKFVEIVKGLIDQFTQK]
MIC [1]: 5.01 µM (≈ 12.5 µg/mL)

SMILES: CC(C)C[C@H](NC(=O)[C@H](CC(C)C)NC(=O)[C@H](CCCCN)NC(=O)[C@H](CO)NC(=O)[C@H](CC(C)C)NC(=O)[C@H](C)NC(=O)[C@H](CCCCN)NC(=O)[C@H](Cc1ccccc1)NC(=O)[C@H](CC(C)C)NC(=O)[C@H](C)NC(=O)CNC(=O)[C@H](CC(C)C)NC(=O)[C@@H](N)Cc1ccccc1)C(=O)O [FLGALFKALSKLL]
MIC [3]: 2 µM (≈ 2.84 µg/mL)
MIC [20]: 4 µM (≈ 5.68 µg/mL)
MIC [4]: 4 µM (≈ 5.68 µg/mL)
MIC [5]: ≥ 64 µM
MIC [6]: ≥ 64 µM
MIC [21]: 6.33 µM (≈ 9 µg/mL)
MIC [22]: 4 µM and > 2 µM
MIC [23]: > 70.4 µM
MIC [29]: 17.6 µM (≈ 25 µg/mL)
MIC [30]: 2.11 µM (≈ 3 µg/mL)
MIC [7]: ≥ 64 µM
MIC [8]: 2 µM (≈ 2.84 µg/mL)
MIC [31]: 3.52 µM (≈ 5 µg/mL)
MIC [32]: ≥ 98.5 µM

SMILES: CC(C)C[C@H](NC(=O)CNC(=O)[C@H](Cc1ccc(O)cc1)NC(=O)[C@H](Cc1cnc[nH]1)NC(=O)[C@@H]1CCCN1C(=O)[C@H](CC(C)C)NC(=O)[C@H](CCC(=O)O)NC(=O)[C@H](Cc1ccccc1)NC(=O)[C@H](C)NC(=O)[C@H](CO)NC(=O)[C@@H](N)CCCCN)C(=O)O [KSAFELPHYGL]
MIC [33]: ≥ 500 µM
MIC [34]: > 500 µM
MIC [24]: > 500 µM
MIC [13]: 252 µM and 205 µM and 184 µM
MIC [35]: ≥ 250 µM

Other lines, results leading:

MIC [2]: > 35.9 µM
MIC [3]: 1.12 µM (≈ 2 µg/mL)
MIC [9]: ≥ 35.9 µM
MIC [10]: 0.281 µM (≈ 0.5 µg/mL)
MIC [11]: 0.281 µM (≈ 0.5 µg/mL)
MIC [12]: 8.98 µM (≈ 16 µg/mL)
MIC [13]: 35.9 µM (≈ 64 µg/mL)
MIC [14]: ≥ 35.9 µM
MIC [15]: 8.98 µM (≈ 16 µg/mL)
MIC [16]: 4.49 µM (≈ 8 µg/mL)
MIC [17]: ≥ 35.9 µM
SMILES: CC[C@H](C)[C@H](NC(=O)[C@@H](NC(=O)[C@@H](NC(=O)[C@@H](NC(=O)[C@@H]1CCCN1C(=O)[C@H](CS)NC(=O)[C@H](CCCN=C(N)N)NC(=O)[C@H](CCCN=C(N)N)NC(=O)[C@@H](N)CCCN=C(N)N)[C@@H](C)CC)C(C)C)C(C)C)C(=O)N[C@@H](CCCN=C(N)N)C(=O)N[C@H](C(=O)N[C@@H](CS)C(=O)N[C@@H](CCCN=C(N)N)C(=O)N[C@@H](CCCN=C(N)N)C(=O)O)C(C)C [RRRCPIVVIRVCRR]

MIC [2]: > 35.6 µM
MIC [3]: 0.557 µM (≈ 1 µg/mL)
MIC [9]: ≥ 35.6 µM
MIC [10]: 0.278 µM (≈ 0.5 µg/mL)
MIC [11]: 0.557 µM (≈ 1 µg/mL)
MIC [12]: 4.45 µM (≈ 8 µg/mL)
MIC [13]: 17.8 µM (≈ 32 µg/mL)
MIC [14]: 17.8 µM (≈ 32 µg/mL)
MIC [15]: 4.45 µM (≈ 8 µg/mL)
MIC [16]: 2.23 µM (≈ 4 µg/mL)
MIC [17]: 17.8 µM (≈ 32 µg/mL)
SMILES: CC[C@H](C)[C@H](NC(=O)[C@@H](NC(=O)[C@@H](NC(=O)[C@@H]1CCCN1C(=O)[C@H](CS)NC(=O)[C@H](CC(C)C)NC(=O)[C@H](CCCN=C(N)N)NC(=O)[C@H](CCCN=C(N)N)NC(=O)[C@@H](N)CCCN=C(N)N)[C@@H](C)CC)C(C)C)C(=O)N[C@@H](CCCN=C(N)N)C(=O)N[C@H](C(=O)N[C@@H](CS)C(=O)N[C@@H](CCCN=C(N)N)C(=O)N[C@@H](CCCN=C(N)N)C(=O)O)C(C)C [RRRLCPIVIRVCRR]

MIC [18]: 4 µM (≈ 6.08 µg/mL)
MIC [19]: 8 µM (≈ 12.2 µg/mL)
MIC [2]: 32 µM (≈ 48.6 µg/mL)
MIC [20]: 16 µM (≈ 24.3 µg/mL)
MIC [21]: 16 µM (≈ 24.3 µg/mL)
MIC [22]: 64 µM (≈ 97.3 µg/mL)
MIC [23]: 16 µM (≈ 24.3 µg/mL)
MIC [24]: 16 µM and 32 µM
MIC [25]: 1 µM (≈ 1.52 µg/mL)
MIC [26]: ≥ 64 µM
MIC [27]: 16 µM (≈ 24.3 µg/mL)
MIC [28]: 8 µM (≈ 12.2 µg/mL)
SMILES: CC[C@H](C)[C@H](NC(=O)[C@H](CCCN=C(N)N)NC(=O)[C@H](CCCN=C(N)N)NC(=O)[C@@H](NC(=O)[C@@H](NC(=O)[C@@H](N)CCCN=C(N)N)[C@@H](C)CC)[C@@H](C)CC)C(=O)N[C@@H](CCCN=C(N)N)C(=O)N[C@@H](CCCN=C(N)N)C(=O)N[C@H](C(=O)N[C@H](C(=O)N[C@@H](CCCN=C(N)N)C(N)=O)[C@@H](C)CC)[C@@H](C)CC [RIIRRIRRIIR]
